One block for each molecule: values may come before it.
Columns and labels:
ADMP (ADAMTS-4-5) = target: T1, ADMP (ADAMTS-4-5) (Homo sapiens, UniProt O75173); assay: ADMP activity assay (procedures of WO00/05256); format: biochemical; settings: read-out: IC50 rating (ADMP inhibitory activity)
T1 construct: purchased Calbiochem PF113
T1 sequence (O75173 213-837): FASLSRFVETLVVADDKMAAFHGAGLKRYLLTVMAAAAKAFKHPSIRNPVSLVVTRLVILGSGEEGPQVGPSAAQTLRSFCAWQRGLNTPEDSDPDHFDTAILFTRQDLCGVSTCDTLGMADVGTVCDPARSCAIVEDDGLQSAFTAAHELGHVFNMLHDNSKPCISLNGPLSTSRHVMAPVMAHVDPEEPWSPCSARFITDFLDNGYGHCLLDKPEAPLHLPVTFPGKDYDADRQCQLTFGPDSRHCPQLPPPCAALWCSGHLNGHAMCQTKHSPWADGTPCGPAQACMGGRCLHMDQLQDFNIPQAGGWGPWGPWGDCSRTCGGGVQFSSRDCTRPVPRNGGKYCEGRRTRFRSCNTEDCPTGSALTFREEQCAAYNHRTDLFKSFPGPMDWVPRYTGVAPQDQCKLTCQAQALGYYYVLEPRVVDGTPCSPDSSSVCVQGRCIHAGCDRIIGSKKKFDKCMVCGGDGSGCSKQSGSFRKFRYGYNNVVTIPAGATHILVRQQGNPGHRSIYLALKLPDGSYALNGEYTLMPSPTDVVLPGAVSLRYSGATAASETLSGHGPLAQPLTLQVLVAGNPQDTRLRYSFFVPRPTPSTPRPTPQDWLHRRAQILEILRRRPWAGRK
From the text: The procedures of International Patent Publication WO00/05256 (published Feb. 3, 2000) were followed for detection of ADMP Activity and for measuring the IC50 of the compounds of the present invention. This was indicative of activity against a desintgrin and metallopropeinase thrombo spondin 4 and 5 (ADAMTS-4-5).
The enzyme was purchased commercially from Calbiochem (Cat# PF113) and the peptide substrate described in the patent was custom-ordered from AnaSpec.

LpxC enzyme = LpxC enzyme assay (RapidFire high-throughput mass spectrometry); format: biochemical
In short: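 0.2 nM enzyme with 1.0 μM UDP-3-O-(R-3-hydroxymyristoyl)-N-acetylglucosamine in 25 mM HEPES pH 7.3, 150 mM NaCl, 2.0 mM DTT, 0.01% BSA, 2% DMSO; 60 min at room temperature, quenched with HCl. Substrate and product quantified by RapidFire mass spectrometry; percent conversion gives percent inhibition versus DMSO control.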

[1] = concentration 0.10 (unit not given)
[2] = concentration 0.20 (unit not given)
[3] = concentration 0.39 (unit not given)
[4] = concentration 0.78 (unit not given)
[5] = concentration 1.56 (unit not given)
[6] = concentration 3.13 (unit not given)
[7] = concentration 6.25 (unit not given)
[8] = concentration 12.50 (unit not given)
[9] = concentration 25 (unit not given)
[10] = concentration 50 (unit not given)

IC50 (ADMP (ADAMTS-4-5)): 0.25 to 1 µM
SMILES: C[C@H](NC(=O)[C@H](O)[C@@H](O)C(=O)N1Cc2ccccc2C1)c1ccc(Br)cc1 [Compound 175]

IC50 (ADMP (ADAMTS-4-5)): > 5 µM
SMILES: C[C@H](NC(=O)[C@H](O)[C@@H](O)C(=O)N1CCC2(CCCNC2)CC1)c1ccc(Br)cc1 [Compound 158]

IC50 (ADMP (ADAMTS-4-5)): 0.25 to 1 µM
SMILES: CN(C(=O)[C@H](O)[C@@H](O)C(=O)NCc1ccc(C(F)(F)F)cc1)C1CCCCC1 [Compound 125]

IC50 (ADMP (ADAMTS-4-5)): 0.25 to 1 µM
SMILES: C[C@H](NC(=O)C(O)C(O)C(=O)N1CCc2ccccc2C1)c1ccc(I)cc1 (stereo in doubt) [Compound 210]

IC50 (ADMP (ADAMTS-4-5)): 0.25 to 1 µM
SMILES: COc1ccc(CNC(=O)[C@H](O)[C@@H](O)C(=O)N2CCC[C@H]2CN2CCCC2)cc1 [Compound 134]

IC50 (ADMP (ADAMTS-4-5)): 0.25 to 1 µM
SMILES: C[C@H](NC(=O)[C@H](O)[C@@H](O)C(=O)N(C)Cc1cc(Cl)cc(Cl)c1)c1ccc(Br)cc1 [Compound 139]

SMILES: CN(C)C(=O)[C@H](O)[C@@H](O)C(=O)Nc1ccc(-n2cccn2)cc1 [Compound 58]
LpxC enzyme assay rating (% inhibition at indicated concentrations) (LpxC enzyme; [1]): C (less than 10% inhibition)
LpxC enzyme assay rating (% inhibition at indicated concentrations) (LpxC enzyme; [2]): B (10-30% inhibition)
LpxC enzyme assay rating (% inhibition at indicated concentrations) (LpxC enzyme; [3]): C (less than 10% inhibition)
LpxC enzyme assay rating (% inhibition at indicated concentrations) (LpxC enzyme; [4]): B (10-30% inhibition)
LpxC enzyme assay rating (% inhibition at indicated concentrations) (LpxC enzyme; [5]): C (less than 10% inhibition)
LpxC enzyme assay rating (% inhibition at indicated concentrations) (LpxC enzyme; [6]): B (10-30% inhibition)
LpxC enzyme assay rating (% inhibition at indicated concentrations) (LpxC enzyme; [7]): B (10-30% inhibition)
LpxC enzyme assay rating (% inhibition at indicated concentrations) (LpxC enzyme; [8]): B (10-30% inhibition)
LpxC enzyme assay rating (% inhibition at indicated concentrations) (LpxC enzyme; [9]): C (less than 10% inhibition)
LpxC enzyme assay rating (% inhibition at indicated concentrations) (LpxC enzyme; [10]): B (10-30% inhibition)

SMILES: CNC(=O)[C@H](O)[C@@H](O)C(=O)N1CCN(c2ccc(-c3ncccn3)cc2)CC1 [Compound 37]
LpxC enzyme assay rating (% inhibition at indicated concentrations) (LpxC enzyme; [1]): C (less than 10% inhibition)
LpxC enzyme assay rating (% inhibition at indicated concentrations) (LpxC enzyme; [2]): C (less than 10% inhibition)
LpxC enzyme assay rating (% inhibition at indicated concentrations) (LpxC enzyme; [3]): C (less than 10% inhibition)
LpxC enzyme assay rating (% inhibition at indicated concentrations) (LpxC enzyme; [4]): C (less than 10% inhibition)
LpxC enzyme assay rating (% inhibition at indicated concentrations) (LpxC enzyme; [5]): C (less than 10% inhibition)
LpxC enzyme assay rating (% inhibition at indicated concentrations) (LpxC enzyme; [6]): C (less than 10% inhibition)
LpxC enzyme assay rating (% inhibition at indicated concentrations) (LpxC enzyme; [7]): B (10-30% inhibition)
LpxC enzyme assay rating (% inhibition at indicated concentrations) (LpxC enzyme; [8]): C (less than 10% inhibition)
LpxC enzyme assay rating (% inhibition at indicated concentrations) (LpxC enzyme; [9]): B (10-30% inhibition)
LpxC enzyme assay rating (% inhibition at indicated concentrations) (LpxC enzyme; [10]): C (less than 10% inhibition)

SMILES: CN(C)C(=O)[C@H](O)[C@@H](O)C(=O)n1ccc2cc(C#Cc3ccccc3)ccc21 [Compound 44]
LpxC enzyme assay rating (% inhibition at indicated concentrations) (LpxC enzyme; [1]): C (less than 10% inhibition)
LpxC enzyme assay rating (% inhibition at indicated concentrations) (LpxC enzyme; [2]): B (10-30% inhibition)
LpxC enzyme assay rating (% inhibition at indicated concentrations) (LpxC enzyme; [3]): C (less than 10% inhibition)
LpxC enzyme assay rating (% inhibition at indicated concentrations) (LpxC enzyme; [4]): C (less than 10% inhibition)
LpxC enzyme assay rating (% inhibition at indicated concentrations) (LpxC enzyme; [5]): C (less than 10% inhibition)
LpxC enzyme assay rating (% inhibition at indicated concentrations) (LpxC enzyme; [6]): B (10-30% inhibition)
LpxC enzyme assay rating (% inhibition at indicated concentrations) (LpxC enzyme; [7]): B (10-30% inhibition)
LpxC enzyme assay rating (% inhibition at indicated concentrations) (LpxC enzyme; [8]): A (greater than 30% inhibition)
LpxC enzyme assay rating (% inhibition at indicated concentrations) (LpxC enzyme; [9]): A (greater than 30% inhibition)
LpxC enzyme assay rating (% inhibition at indicated concentrations) (LpxC enzyme; [10]): A (greater than 30% inhibition)

SMILES: CN(C)C(=O)[C@H](O)[C@@H](O)C(=O)Nc1ccc(-c2ccccc2)cc1 [Compound 45]
LpxC enzyme assay rating (% inhibition at indicated concentrations) (LpxC enzyme; [1]): C (less than 10% inhibition)
LpxC enzyme assay rating (% inhibition at indicated concentrations) (LpxC enzyme; [2]): C (less than 10% inhibition)
LpxC enzyme assay rating (% inhibition at indicated concentrations) (LpxC enzyme; [3]): C (less than 10% inhibition)
LpxC enzyme assay rating (% inhibition at indicated concentrations) (LpxC enzyme; [4]): C (less than 10% inhibition)
LpxC enzyme assay rating (% inhibition at indicated concentrations) (LpxC enzyme; [5]): C (less than 10% inhibition)
LpxC enzyme assay rating (% inhibition at indicated concentrations) (LpxC enzyme; [6]): C (less than 10% inhibition)
LpxC enzyme assay rating (% inhibition at indicated concentrations) (LpxC enzyme; [7]): C (less than 10% inhibition)
LpxC enzyme assay rating (% inhibition at indicated concentrations) (LpxC enzyme; [8]): C (less than 10% inhibition)
LpxC enzyme assay rating (% inhibition at indicated concentrations) (LpxC enzyme; [9]): C (less than 10% inhibition)
LpxC enzyme assay rating (% inhibition at indicated concentrations) (LpxC enzyme; [10]): C (less than 10% inhibition)

SMILES: CN(C)C(=O)[C@H](O)[C@@H](O)C(=O)Nc1ccc(-c2cc[nH]n2)cc1 [Compound 59]
LpxC enzyme assay rating (% inhibition at indicated concentrations) (LpxC enzyme; [1]): B (10-30% inhibition)
LpxC enzyme assay rating (% inhibition at indicated concentrations) (LpxC enzyme; [2]): C (less than 10% inhibition)
LpxC enzyme assay rating (% inhibition at indicated concentrations) (LpxC enzyme; [3]): B (10-30% inhibition)
LpxC enzyme assay rating (% inhibition at indicated concentrations) (LpxC enzyme; [4]): C (less than 10% inhibition)
LpxC enzyme assay rating (% inhibition at indicated concentrations) (LpxC enzyme; [5]): C (less than 10% inhibition)
LpxC enzyme assay rating (% inhibition at indicated concentrations) (LpxC enzyme; [6]): C (less than 10% inhibition)
LpxC enzyme assay rating (% inhibition at indicated concentrations) (LpxC enzyme; [7]): C (less than 10% inhibition)
LpxC enzyme assay rating (% inhibition at indicated concentrations) (LpxC enzyme; [8]): C (less than 10% inhibition)
LpxC enzyme assay rating (% inhibition at indicated concentrations) (LpxC enzyme; [9]): B (10-30% inhibition)
LpxC enzyme assay rating (% inhibition at indicated concentrations) (LpxC enzyme; [10]): C (less than 10% inhibition)

SMILES: CN(C)C(=O)[C@H](O)[C@@H](O)C(=O)Nc1ccccc1C#Cc1ccccc1 [Compound 80]
LpxC enzyme assay rating (% inhibition at indicated concentrations) (LpxC enzyme; [1]): C (less than 10% inhibition)
LpxC enzyme assay rating (% inhibition at indicated concentrations) (LpxC enzyme; [2]): C (less than 10% inhibition)
LpxC enzyme assay rating (% inhibition at indicated concentrations) (LpxC enzyme; [3]): C (less than 10% inhibition)
LpxC enzyme assay rating (% inhibition at indicated concentrations) (LpxC enzyme; [4]): C (less than 10% inhibition)
LpxC enzyme assay rating (% inhibition at indicated concentrations) (LpxC enzyme; [5]): C (less than 10% inhibition)
LpxC enzyme assay rating (% inhibition at indicated concentrations) (LpxC enzyme; [6]): C (less than 10% inhibition)
LpxC enzyme assay rating (% inhibition at indicated concentrations) (LpxC enzyme; [7]): C (less than 10% inhibition)
LpxC enzyme assay rating (% inhibition at indicated concentrations) (LpxC enzyme; [8]): B (10-30% inhibition)
LpxC enzyme assay rating (% inhibition at indicated concentrations) (LpxC enzyme; [9]): C (less than 10% inhibition)

SMILES: CCCCc1ccc(NC(=O)[C@H](O)[C@@H](O)C(=O)N(C)C)cc1 [Compound 48]
LpxC enzyme assay rating (% inhibition at indicated concentrations) (LpxC enzyme; [1]): B (10-30% inhibition)
LpxC enzyme assay rating (% inhibition at indicated concentrations) (LpxC enzyme; [2]): C (less than 10% inhibition)
LpxC enzyme assay rating (% inhibition at indicated concentrations) (LpxC enzyme; [3]): C (less than 10% inhibition)
LpxC enzyme assay rating (% inhibition at indicated concentrations) (LpxC enzyme; [4]): C (less than 10% inhibition)
LpxC enzyme assay rating (% inhibition at indicated concentrations) (LpxC enzyme; [5]): C (less than 10% inhibition)
LpxC enzyme assay rating (% inhibition at indicated concentrations) (LpxC enzyme; [6]): B (10-30% inhibition)
LpxC enzyme assay rating (% inhibition at indicated concentrations) (LpxC enzyme; [7]): C (less than 10% inhibition)
LpxC enzyme assay rating (% inhibition at indicated concentrations) (LpxC enzyme; [8]): B (10-30% inhibition)
LpxC enzyme assay rating (% inhibition at indicated concentrations) (LpxC enzyme; [9]): C (less than 10% inhibition)
LpxC enzyme assay rating (% inhibition at indicated concentrations) (LpxC enzyme; [10]): B (10-30% inhibition)
